Numbered stars: 1 amine (or outer) side, 2 acyl side, 3 side chain; on linkers, the order of the positions; unused ones are H or OH. Bridge positions count the residues as written; N and C are the ends. Square brackets hold non-standard residues; d marks the D form. Peptide text beside a SMILES is read from it. * marks the point of attachment. hPhe(3,5-F2-4-CF3) = N[C@@H](CCc1cc(F)c(C(F)(F)F)c(F)c1)C(=O)O; hPhe(3-Cl-4-CF3) = N[C@@H](CCc1ccc(C(F)(F)F)c(Cl)c1)C(=O)O; hPhe(3-F,4-CF3) = N[C@@H](CCc1ccc(C(F)(F)F)c(F)c1)C(=O)O; NMePhe(4-CF3) = CN[C@@H](Cc1ccc(C(F)(F)F)cc1)C(=O)O; NMePhe(4-Cl) = CN[C@@H](Cc1ccc(Cl)cc1)C(=O)O; NMePhe(4-Me) = CN[C@@H](Cc1ccc(C)cc1)C(=O)O; NMedβ3hAla = C[C@H](CC(=O)[*:2])N(C)[*:1]; NMeAla(cPent) = CN[C@@H](CC1CCCC1)C(=O)O; NMeGly(cPent) = CN[C@H](C(=O)O)C1CCCC1; NMeGly(cBu) = CN[C@H](C(=O)O)C1CCC1; NMeCha = CN[C@@H](CC1CCCCC1)C(=O)O; NMeI = CC[C@H](C)[C@H](NC)C(=O)O; NMeD = CN[C@@H](CC(=O)O)C(=O)O; NMeL = CN[C@@H](CC(C)C)C(=O)O; Chg = N[C@H](C(=O)O)C1CCCCC1; NMeC = CN[C@@H](CS)C(=O)O; NMeS = CN[C@@H](CO)C(=O)O; NPhGly = O=C(O)CNc1ccccc1; Morpholide = C1CN(*)CCO1; NMeA = CN[C@@H](C)C(=O)O; NMeAib = CNC(C)(C)C(=O)O; Ac5c = NC1(C(=O)O)CCCC1; Aze = O=C(O)[C@@H]1CCN1; Sar = CNCC(=O)O; Propyl = CCC*
Experiments:
[1] = biological target: protein-protein interaction between Kras and SOS1 (biotin-tagged human Kras loaded with GDP, His-tagged human SOS1) (Homo sapiens (Human), UniProt P01116, G12D); assay: Protein-protein interaction inhibition between Kras and SOS1 (KrasG12D-SOS PPI) using AlphaScreen; type: biochemical; conditions: AlphaScreen; biotin-tagged human Kras loaded with GDP, His-tagged human SOS1; read-out: KRAS G12D-SOS PPI IC50;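 also: kras produced in E. coli, Ni-coupled donor beads and streptavidin acceptor beads, excitation 680 nm with emission detected at 520–620 nm via singlet oxygen transfer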
[2] = system: Human pancreatic cancer cell line AsPC-1 (G12D mutation Kras); assay: AsPC-1 cell growth inhibition (AsPC-1 CGI); type: cell-based; conditions: read-out: AsPC-1 cell growth inhibition, 50% growth inhibitory concentration (IC50 value); 96 hours, CellTiter-Glo, values classified in ranges
Experimental: Test compounds were serially dilated with dimethyl sulfoxide, and 200 nL was then dispensed to a U-bottom 96-well plate using Labcyte Echo. […] The cell suspension was dispensed to a. plate containing a test compound at 100 μL per well and incubated at 37° C. in a 5% carbon dioxide gas incubator. 96 hours later, 80 μL of CellTiter-Glo (Promega) was added to each well and fluorescence was measured.

| SMILES | IC50 [1] [nM] | IC50 [2] [nM] |
| --- | --- | --- |
| CC[C@H](C)[C@@H]1NC(=O)[C@H](CC(C)C)N(C)C(=O)C[C@@H](C)N(C)C(=O)[C@H]([C@@H](C)CC)N(C)C(=O)C2(CCCC2)NC(=O)[C@@H]2CCCN2C(=O)[C@H](CCc2cc(F)c(C(F)(F)F)c(F)c2)NC(=O)CN(C)C(=O)[C@H](Cc2ccc(C(F)(F)F)cc2)N(C)C(=O)[C@@H]2CCN2C(=O)[C@H](C)N(C)C1=O [Compound 907] (cyclo([Ac5c][NMeI][NMedβ3hAla][NMeL]I[NMeA][Aze][NMePhe(4-CF3)][Sar][hPhe(3,5-F2-4-CF3)]P)) | 1.4 | ≤ 20 |
| CC[C@H](C)[C@@H]1NC(=O)[C@H](CC2CCCC2)N(C)C(=O)C[C@@H](C(=O)N(C)C)N(C)C(=O)[C@H]([C@@H](C)CC)N(C)C(=O)C2(CCCC2)NC(=O)[C@@H]2CCCN2C(=O)[C@H](CCc2ccc(C(F)(F)F)c(Cl)c2)NC(=O)CN(C)C(=O)[C@H](Cc2ccc(C)cc2)N(C)C(=O)[C@@H]2CCN2C(=O)[C@H](C)N(C)C1=O [Compound 400] ([NMeAla(cPent)]I[NMeA][Aze][NMePhe(4-Me)][Sar][hPhe(3-Cl-4-CF3)]P[Ac5c][NMeI][NMeD]-NMe2; lactam N-11) | 0.85 | ≤ 20 |
| CC[C@H](C)[C@@H]1NC(=O)[C@H](CC(C)C)N(C)C(=O)C[C@@H](C)N(C)C(=O)[C@H](CC(C)C)NC(=O)C(C)(C)N(C)C(=O)[C@H](Cc2ccccc2)NC(=O)[C@H](CCc2ccc(C(F)(F)F)c(F)c2)NC(=O)CN(C)C(=O)[C@H](Cc2ccc(Cl)cc2)N(C)C(=O)CN(C)C(=O)CN(C)C1=O [Compound 471] (cyclo(F[NMeAib]L[NMedβ3hAla][NMeL]I[Sar][Sar][NMePhe(4-Cl)][Sar][hPhe(3-F,4-CF3)])) | 58 | > 500 |
| CCCOC[C@H]1C(=O)N(C)CC(=O)N[C@@H](CCc2ccc(C(F)(F)F)c(Cl)c2)C(=O)N2CCC[C@H]2C(=O)NC2(CCCC2)C(=O)N(C)[C@@H]([C@@H](C)CC)C(=O)N(C)[C@H](C(=O)N2CCOCC2)CC(=O)N(C)[C@@H](CC(C)C)C(=O)N[C@@H]([C@@H](C)CC)C(=O)N(C)[C@@H](C)C(=O)N2CC[C@H]2C(=O)N1C [Compound 693] ([NMeL]I[NMeA][Aze][NMeS](Propyl)[Sar][hPhe(3-Cl-4-CF3)]P[Ac5c][NMeI][NMeD]-Morpholide; lactam N-11) | 1.6 | ≤ 20 |
| CC[C@H](C)[C@@H]1NC(=O)[C@H](CC(C)C)N(C)C(=O)C[C@@H](C)N(C)C(=O)[C@H](C2CCCCC2)NC(=O)C(C)(C)N(C)C(=O)[C@H](CC(C)C)NC(=O)[C@H](CCc2ccc(C(F)(F)F)c(F)c2)NC(=O)CN(C)C(=O)[C@H](Cc2ccc(Cl)cc2)N(C)C(=O)CN(C)C(=O)CN(C)C1=O [Compound 897] (cyclo([Chg][NMedβ3hAla][NMeL]I[Sar][Sar][NMePhe(4-Cl)][Sar][hPhe(3-F,4-CF3)]L[NMeAib])) | 150 | > 500 |
| CC[C@H](C)[C@@H]1NC(=O)[C@H](CC(C)C)N(C)C(=O)C[C@@H](C)N(C)C(=O)[C@H](CC(C)C)NC(=O)C(C)(C)N(C)C(=O)[C@H](C(C)C)NC(=O)[C@H](CCc2ccc(C(F)(F)F)c(F)c2)NC(=O)CN(C)C(=O)[C@H](Cc2ccc(Cl)cc2)N(C)C(=O)CN(C)C(=O)CN(C)C1=O [Compound 1054] (cyclo(I[Sar][Sar][NMePhe(4-Cl)][Sar][hPhe(3-F,4-CF3)]V[NMeAib]L[NMedβ3hAla][NMeL])) | 120 | > 500 |
| CC[C@H](C)[C@@H]1NC(=O)[C@H](C)N(C)C(=O)C[C@@H](C)N(C)C(=O)[C@H](C2CCC2)N(C)C(=O)C2(CCCC2)NC(=O)CN(c2ccccc2)C(=O)[C@H](CCc2ccc(C(F)(F)F)c(Cl)c2)NC(=O)CN(C)C(=O)[C@H](CC2CCCCC2)N(C)C(=O)CN(C)C(=O)CN(C)C1=O [Compound 2143] (cyclo([Ac5c][NMeGly(cBu)][NMedβ3hAla][NMeA]I[Sar][Sar][NMeCha][Sar][hPhe(3-Cl-4-CF3)][NPhGly])) | 41 | > 500 |
| CCCOC[C@H]1C(=O)N(C)CC(=O)N[C@@H](CCc2ccc(C(F)(F)F)c(F)c2)C(=O)N2CCC[C@H]2C(=O)NC2(CCCC2)C(=O)N(C)[C@@H](C2CCCC2)C(=O)N(C)[C@H](C(=O)N(C)C)CSCC(=O)N(C)[C@@H](CC(C)C)C(=O)N[C@@H]([C@@H](C)CC)C(=O)N(C)[C@@H](C)C(=O)N2CC[C@H]2C(=O)N1C [Compound 2174, (3S,9S,12S,17S,20S,23S,29R,32S,38S)-20-[(2S)-butan-2-yl]-32-cyclopentyl-3-[2-[3-fluoro-4-(trifluoromethyl)phenyl]ethyl]-N,N,7,10,17,18,24,30,33-nonamethyl-23-(2-methylpropyl)-2,5,8,11,16,19,22,25,31,34,37-undecaoxo-9-(propoxymethyl)spiro[27-thia-1,4,7,10,15,18,21,24,30,33,36-undecazatricyclo[36.3.0.012,15]hentetracontane-35,1′-cyclopentane)-29-carboxamide] ({CH2CO}-[NMeL]I[NMeA][Aze][NMeS](Propyl)[Sar][hPhe(3-F,4-CF3)]P[Ac5c][NMeGly(cPent)][NMeC]-NMe2; thioether N-11) | 870 | > 500 |

From patent US20240148821A1, “PHARMACEUTICAL USE OF CYCLIC PEPTIDE COMPOUND” (CHUGAI SEIYAKU KABUSHIKI KAISHA, priority 2021, published 2024)
